# According to ChEMBL document CHEMBL3882725, “Indazole derivatives as JNK inhibitors and compositions and methods related thereto” (2002):
# Target: Mitogen-activated protein kinase 9 (Homo sapiens, UniProt P45984)
# Assay: Inhibition of His6-tagged JNK2 (unknown origin) assessed as reduction in c-Jun phosphorylation using GST-c-Jun (1 to 79 residues) and [gamma32P]ATP incubated for 1 hr by scintillation counting assay
# Sequence of Mitogen-activated protein kinase 9 (P45984 whole entry, the tested form may be a part): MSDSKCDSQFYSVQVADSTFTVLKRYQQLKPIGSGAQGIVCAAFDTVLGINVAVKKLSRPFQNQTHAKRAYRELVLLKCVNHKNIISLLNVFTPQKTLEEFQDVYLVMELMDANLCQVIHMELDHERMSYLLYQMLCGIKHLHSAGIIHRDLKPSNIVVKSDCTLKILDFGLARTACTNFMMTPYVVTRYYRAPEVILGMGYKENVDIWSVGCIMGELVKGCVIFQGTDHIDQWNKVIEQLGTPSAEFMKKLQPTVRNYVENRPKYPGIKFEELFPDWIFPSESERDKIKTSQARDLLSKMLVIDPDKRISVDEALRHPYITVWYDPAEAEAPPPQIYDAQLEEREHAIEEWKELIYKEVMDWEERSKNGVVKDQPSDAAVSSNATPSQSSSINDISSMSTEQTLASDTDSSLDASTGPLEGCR
row,IC50,Compound
1,0.5 to 10 µM,c1cc(-c2n[nH]c3ccc(-c4nnn[nH]4)cc23)ccc1OCCN1CCOCC1
2,0.5 to 10 µM,O=C(NC1Cc2ccccc2C1)c1cccc(-c2n[nH]c3ccc(-c4ncn[nH]4)cc23)c1
3,0.5 to 10 µM,c1ccc2cc(-c3n[nH]c4ccc(-c5nnn[nH]5)cc34)ccc2c1
4,0.5 to 10 µM,O=C(Nc1cccc(-c2n[nH]c3ccc(-c4nc[nH]n4)cc23)c1)c1ccccc1
5,1 to 10 µM,COc1ccc2cc(-c3n[nH]c4ccc(-c5n[nH]c(CN(C)C)n5)cc34)ccc2c1
6,1 to 10 µM,Fc1ccc(-c2n[nH]c3ccc(-c4cc[nH]n4)cc23)cc1
7,0.5 to 10 µM,COc1ccc2cc(-c3n[nH]c4ccc(-c5n[nH]c(CN6CCCC6)n5)cc34)ccc2c1
8,0.5 to 10 µM,O=C(Nc1ccc(F)cc1)c1cccc(-c2n[nH]c3ccc(-c4nc[nH]n4)cc23)c1
9,1 to 10 µM,O=C(O)c1ccc(CNC(=O)c2ccc3[nH]nc(-c4ccc(F)cc4)c3c2)cc1
10,0.5 to 10 µM,CC(O)Cc1nnc(-c2ccc3[nH]nc(-c4ccc(F)cc4)c3c2)[nH]1 (stereo in doubt; form 1)
11,1 to 10 µM,c1cc(OCCN2CCCCC2)cc(-c2n[nH]c3ccc(-c4nc[nH]n4)cc23)c1 [CC-401]
12,≤ 10 µM,COc1ccc(-c2n[nH]c3ccc(N)cc23)cc1
13,≤ 10 µM,O=C(O)C1CCN(C(=O)c2ccc3[nH]nc(-c4ccc(F)cc4)c3c2)CC1
14,0.5 to 10 µM,O=C(NCc1ccccc1)c1cccc(-c2n[nH]c3ccc(-c4ncn[nH]4)cc23)c1
15,1 to 10 µM,CC(=O)NCCOc1cccc(-c2n[nH]c3ccc(-c4ncn[nH]4)cc23)c1
16,1 to 10 µM,O=C(O)CCc1nnc(-c2ccc3[nH]nc(-c4ccc(F)cc4)c3c2)[nH]1
17,1 to 10 µM,CNC(=O)c1ccc(C(=O)Nc2ccc3[nH]nc(-c4ccc(F)cc4)c3c2)cc1
18,1 to 10 µM,O=C(Nc1cccc([N+](=O)[O-])c1)c1ccc2[nH]nc(-c3ccc(F)cc3)c2c1
19,1 to 10 µM,O=C(O)c1ccc(C(=O)Nc2ccc3[nH]nc(-c4ccc(F)cc4)c3c2)cc1
20,1 to 10 µM,O=C(O)c1ccc2[nH]nc(-c3ccc(F)cc3)c2c1
21,0.5 to 10 µM,c1cc(OCCN2CCOCC2)cc(-c2n[nH]c3ccc(-c4nnn[nH]4)cc23)c1
22,1 to 10 µM,CN(C)CCOc1cccc(-c2n[nH]c3ccc(-c4ncn[nH]4)cc23)c1
23,1 to 10 µM,NC(=O)c1ccc2[nH]nc(-c3ccc(O)cc3)c2c1
24,1 to 10 µM,Clc1cccc(-c2n[nH]c3ccc(-c4ncn[nH]4)cc23)c1

row,IC50,Compound
1,1 to 10 µM,O=C(Nc1ccc2[nH]nc(-c3ccc(F)cc3)c2c1)c1ccco1
2,≤ 10 µM,Nc1ccc2[nH]nc(-c3ccccc3)c2c1
3,1 to 10 µM,Fc1ccc(-c2n[nH]c3ccc(-c4n[nH]c(CN5CCOCC5)n4)cc23)cc1
4,1 to 10 µM,CC(C)(C)OC(=O)CNC(=O)c1ccc2[nH]nc(-c3ccc(F)cc3)c2c1
5,1 to 10 µM,O=C(Nc1cccc(-c2n[nH]c3ccc(-c4nc[nH]n4)cc23)c1)c1ccc(Cl)cc1
6,1 to 10 µM,O=C(O)CNC(=O)c1ccc2[nH]nc(-c3ccc(F)cc3)c2c1
7,1 to 10 µM,NC(=O)c1ccc2[nH]nc(-c3ccc4ccccc4c3)c2c1
8,1 to 10 µM,O=C(O)CCCCNC(=O)c1ccc2[nH]nc(-c3ccc(F)cc3)c2c1
9,0.5 to 10 µM,NC(=O)c1ccc2[nH]nc(-c3cccc(NC(=O)Cc4ccncc4)c3)c2c1
10,1 to 10 µM,NC(=O)c1ccc2[nH]nc(-c3cccc(NC(=O)Cc4ccc(C(F)(F)F)cc4)c3)c2c1
11,0.5 to 10 µM,COc1cccc(-c2n[nH]c3ccc(-c4nnn[nH]4)cc23)c1
12,0.5 to 10 µM,CN(C)Cc1n[nH]c(-c2ccc3[nH]nc(-c4cccc(C(=O)Nc5ccc(F)cc5)c4)c3c2)n1
13,1 to 10 µM,c1cc(OCCN2CCOCC2)cc(-c2n[nH]c3ccc(-c4ncn[nH]4)cc23)c1
14,≤ 10 µM,Cc1ccc2[nH]nc(-c3ccc(F)cc3)c2c1
15,1 to 10 µM,Nc1ccc(C(=O)Nc2ccc3[nH]nc(-c4ccccc4)c3c2)cc1
16,0.5 to 10 µM,O=C(Nc1ccccc1)c1cccc(-c2n[nH]c3ccc(-c4nc[nH]n4)cc23)c1
17,1 to 10 µM,Fc1ccc(-c2n[nH]c3ccc(-c4ncc[nH]4)cc23)cc1
18,1 to 10 µM,CC(=O)c1ccc2[nH]nc(-c3ccc(F)cc3)c2c1
19,1 to 10 µM,CS(=O)(=O)Nc1ccc(-c2n[nH]c3ccc(-c4nc[nH]n4)cc23)cc1
20,1 to 10 µM,O=C(O)CCNC(=O)c1ccc2[nH]nc(-c3ccc(F)cc3)c2c1
21,1 to 10 µM,O=C(CCN1CCCCC1)Nc1cccc(-c2n[nH]c3ccc(-c4nc[nH]n4)cc23)c1
22,1 to 10 µM,O=C1CCCN1CCOc1cccc(-c2n[nH]c3ccc(-c4ncn[nH]4)cc23)c1
23,0.5 to 10 µM,Clc1ccc(-c2n[nH]c3ccc(-c4nnn[nH]4)cc23)cc1
24,0.5 to 10 µM,CN(C)CCCOc1ccc(-c2n[nH]c3ccc(-c4nnn[nH]4)cc23)cc1

row,IC50,Compound
1,0.5 to 10 µM,O=C(NC1CCCC1)c1cccc(-c2n[nH]c3ccc(-c4nc[nH]n4)cc23)c1
2,1 to 10 µM,CC(C)CNC(=O)c1ccc2[nH]nc(-c3cc4ccccc4o3)c2c1
3,1 to 10 µM,CC(C)COc1ccc(-c2n[nH]c3ccc(-c4nnn[nH]4)cc23)cc1
4,0.5 to 10 µM,O=C(Nc1ccncc1)c1cccc(-c2n[nH]c3ccc(-c4nc[nH]n4)cc23)c1
5,1 to 10 µM,COCC(=O)Nc1cccc(-c2n[nH]c3ccc(C(N)=O)cc23)c1
6,1 to 10 µM,CCOC(=O)Cc1n[nH]c(-c2ccc3[nH]nc(-c4ccc(F)cc4)c3c2)n1
7,0.5 to 10 µM,O=C(NC1CCN(Cc2ccccc2)C1)c1cccc(-c2n[nH]c3ccc(-c4nc[nH]n4)cc23)c1 (stereo not drawn)
8,0.5 to 10 µM,O=C(Nc1cccc2c1CCCC2)c1cccc(-c2n[nH]c3ccc(-c4nc[nH]n4)cc23)c1
9,1 to 10 µM,CC(C)(C)OC(=O)NNC(=O)c1ccc2[nH]nc(-c3ccc(F)cc3)c2c1
10,0.5 to 10 µM,CC(C)(NC(=O)c1cccc(-c2n[nH]c3ccc(-c4ncn[nH]4)cc23)c1)c1ccccc1
11,0.5 to 10 µM,O=C(NC1CCC1)c1cccc(-c2n[nH]c3ccc(-c4nc[nH]n4)cc23)c1
12,1 to 10 µM,NC(=O)c1ccc2[nH]nc(-c3ccc4c(c3)CCO4)c2c1
13,1 to 10 µM,c1cncc(COc2cccc(-c3n[nH]c4ccc(-c5nc[nH]n5)cc34)c2)c1
14,1 to 10 µM,Fc1ccc(-c2n[nH]c3ccc(-c4nc(-c5ccncc5)n[nH]4)cc23)cc1
15,0.5 to 10 µM,CN(C)Cc1n[nH]c(-c2ccc3[nH]nc(-c4cccc(C(=O)Nc5ccccc5)c4)c3c2)n1
16,1 to 10 µM,NC(=O)c1ccc2[nH]nc(-c3cccc(NC(=O)Cc4ccsc4)c3)c2c1
17,1 to 10 µM,COc1ccc2cc(-c3n[nH]c4ccc(-c5nc[nH]n5)cc34)ccc2c1
18,≤ 10 µM,O=[N+]([O-])c1ccc2[nH]nc(-c3ccc4ccccc4c3)c2c1
19,1 to 10 µM,COc1ccc(-c2n[nH]c3ccc(NC(=O)c4ccc(C(=O)O)cc4)cc23)cc1
20,0.5 to 10 µM,CC(C)NC(=O)c1cccc(-c2n[nH]c3ccc(-c4nc[nH]n4)cc23)c1
21,1 to 10 µM,COc1ccc(-c2n[nH]c3ccc(C(N)=O)cc23)cc1
22,1 to 10 µM,CN(C)CCCOc1cccc(-c2n[nH]c3ccc(-c4ncn[nH]4)cc23)c1
23,1 to 10 µM,Cc1nnc(-c2ccc3[nH]nc(-c4ccc(F)cc4)c3c2)o1
24,1 to 10 µM,Cc1ccc(-c2n[nH]c3ccc(-c4nnc[nH]4)cc23)cc1

row,IC50,Compound
1,1 to 10 µM,CC(C(=O)Nc1cccc(-c2n[nH]c3ccc(C(N)=O)cc23)c1)c1ccccc1 (stereo not drawn)
2,≤ 10 µM,O=[N+]([O-])c1ccc2[nH]nc(-c3ccccc3)c2c1
3,1 to 10 µM,O=C(Nc1ccc2[nH]nc(-c3ccc(F)cc3)c2c1)c1ccccn1
4,1 to 10 µM,NCCCNC(=O)c1ccc2[nH]nc(-c3ccc(F)cc3)c2c1
5,1 to 10 µM,c1cc2[nH]nc(-c3ccc4c(c3)OCCO4)c2cc1-c1n[nH]c(CN2CCCC2)n1
6,0.5 to 10 µM,NC(=O)c1ccc2[nH]nc(-c3cccc(NC(=O)c4ccco4)c3)c2c1
7,0.5 to 10 µM,c1ccc2sc(-c3n[nH]c4ccc(-c5nn[nH]n5)cc34)cc2c1
8,1 to 10 µM,Cc1ccc(C(=O)Nc2cccc(-c3n[nH]c4ccc(-c5nc[nH]n5)cc34)c2)cc1
9,1 to 10 µM,O=C(Nc1ccc2[nH]nc(-c3ccc(F)cc3)c2c1)c1ccncc1
10,0.5 to 10 µM,CCCCC(=O)Nc1cccc(-c2n[nH]c3ccc(-c4nc[nH]n4)cc23)c1
11,1 to 10 µM,O=C(O)Cc1ccc(NC(=O)c2ccc3[nH]nc(-c4ccc(F)cc4)c3c2)cc1
12,≤ 10 µM,Nc1ccc2[nH]nc(-c3cccc(C(F)(F)F)c3)c2c1
13,≤ 10 µM,COc1ccccc1C(=O)Nc1ccc2[nH]nc(-c3ccc(F)cc3)c2c1
14,1 to 10 µM,COCCOc1cccc(-c2n[nH]c3ccc(-c4nc[nH]n4)cc23)c1
15,1 to 10 µM,COc1ccc2cc(-c3n[nH]c4ccc(C(N)=O)cc34)ccc2c1
16,≤ 10 µM,CN1CCN(C(=O)c2cccc(-c3n[nH]c4ccc(-c5ncn[nH]5)cc34)c2)CC1
17,0.5 to 10 µM,Nc1cccc(-c2n[nH]c3ccc(-c4nnn[nH]4)cc23)c1
18,1 to 10 µM,CNC(=O)c1ccc2[nH]nc(-c3ccc(F)cc3)c2c1
19,≤ 10 µM,CCOC(=O)CCc1ccc2[nH]nc(-c3ccc(F)cc3)c2c1
20,1 to 10 µM,O=C(Nc1ccc2[nH]nc(-c3ccc(F)cc3)c2c1)c1ccccc1O
21,0.5 to 10 µM,O=C(Nc1cccc(-c2n[nH]c3ccc(-c4nn[nH]n4)cc23)c1)c1ccco1
22,1 to 10 µM,NC(=O)c1ccc2[nH]nc(-c3cccc(NC(=O)Cc4ccc(F)cc4Cl)c3)c2c1
23,1 to 10 µM,O=C(NCC1CCCC[C@H]1O)c1ccc2[nH]nc(-c3ccc(F)cc3)c2c1 (stereo partly drawn)
24,≤ 10 µM,O=C(NOCc1ccccc1)c1ccc2[nH]nc(-c3ccc(F)cc3)c2c1

row,Compound,IC50
1,CN(C)CCCOc1cccc(-c2n[nH]c3ccc(-c4nnn[nH]4)cc23)c1,0.5 to 10 µM
2,CN(C)Cc1n[nH]c(-c2ccc3[nH]nc(-c4cc5ccccc5o4)c3c2)n1,1 to 10 µM
3,CN(C)c1ccc(-c2n[nH]c3ccc(-c4ncn[nH]4)cc23)cc1,1 to 10 µM
4,CN(C)CCOc1ccc(-c2n[nH]c3ccc(-c4ncn[nH]4)cc23)cc1,1 to 10 µM
5,CN(C)CCc1nc(-c2ccc3[nH]nc(-c4ccc(F)cc4)c3c2)n[nH]1,1 to 10 µM
6,CN(C)Cc1n[nH]c(-c2ccc3[nH]nc(-c4cccc(C(=O)NCCN5CCCCC5)c4)c3c2)n1,0.5 to 10 µM
7,COc1ccc(-c2n[nH]c3ccc(-c4n[nH]c(CN(C)C)n4)cc23)cc1,0.5 to 10 µM
